Data: PubChem BioAssay AID248 (DTP/NCI, 2004)
Where “and” joins values, the source holds several entries; their conditions need not be identical. Equal entries are not always repeated. Toxic doses and inconclusive results are not listed. Cut-off read from the data, not from the text of the source: active = T/C of 150% or more; inactive = T/C below 125%. Square brackets hold non-standard residues; d marks the D form. Peptide text beside a SMILES is read from it. * marks the point of attachment. ξ: configuration not given here. Cbz = O=C(OCc1ccccc1)*; OBn = c1ccc(CO*)cc1; ξP = O=C(O)C1CCCN1

Test system: L1210 leukemia ip in BDF1 mice, survival T/C
Experiment: NCI In Vivo Anticancer Drug Screen. Data for tumor model L1210 Leukemia (intraperitoneal) in B6D2F1 (BDF1) mice
Conditions: endpoint: mean survival time, higher = longer survival
Procedure, shortened: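 Read-out is survival time, reported as the treated-group measurement over the vehicle-control measurement.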

[1] = dose: 25.0 mg/kg/injection, schedule: Q04DX003 (ip), vehicle: saline
[2] = dose: 50.0 mg/kg/injection, schedule: Q04DX003 (ip), vehicle: saline
[3] = dose: 100.0 mg/kg/injection, schedule: Q01DX001 (ip), vehicle: saline
[4] = dose: 200.0 mg/kg/injection, schedule: Q01DX001 (ip), vehicle: saline
[5] = dose: 400.0 mg/kg/injection, schedule: Q01DX001 (ip), vehicle: saline
[6] = dose: 100.0 mg/kg/injection, schedule: Q04DX003 (ip), vehicle: saline
[7] = dose: 200.0 mg/kg/injection, schedule: Q04DX003 (ip), vehicle: saline
[8] = dose: 100.0 mg/kg/injection, schedule: Q01DX009 (ip), vehicle: Klucel (hydroxypropylcellulose) (HPC)
[9] = dose: 200.0 mg/kg/injection, schedule: Q01DX009 (ip), vehicle: Klucel (hydroxypropylcellulose) (HPC)
[10] = dose: 100.0 mg/kg/injection, schedule: Q04DX003 (ip), vehicle: Klucel (hydroxypropylcellulose) (HPC)
[11] = dose: 200.0 mg/kg/injection, schedule: Q04DX003 (ip), vehicle: Klucel (hydroxypropylcellulose) (HPC)
[12] = dose: 400.0 mg/kg/injection, schedule: Q01DX009 (ip), vehicle: Klucel (hydroxypropylcellulose) (HPC)
[13] = dose: 400.0 mg/kg/injection, schedule: Q04DX003 (ip), vehicle: Klucel (hydroxypropylcellulose) (HPC)

Measured: T/C

CC(C)(C)C1CC(C(F)(F)F)(C(F)(F)F)OS(=O)O1 (stereo unspecified)
inactive: dose: 12.5 mg/kg/injection, schedule: Q01DX009 (ip), vehicle: saline 96 % of control | dose: 12.5 mg/kg/injection, schedule: Q04DX003 (ip), vehicle: saline 102 % of control | dose: 25.0 mg/kg/injection, schedule: Q01DX009 (ip), vehicle: saline 94 % of control | [1] 91 % of control | dose: 50.0 mg/kg/injection, schedule: Q01DX009 (ip), vehicle: saline 100 % of control | [2] 94 % of control

NC(N)=NN=C(c1ccc([N+](=O)[O-])s1)c1ccc([N+](=O)[O-])s1
inactive: dose: 15.0 mg/kg/injection, schedule: Q01DX Z (ip), vehicle: carboxymethylcellulose (CMC) 97 % of control | dose: 30.0 mg/kg/injection, schedule: Q01DX Z (ip), vehicle: carboxymethylcellulose (CMC) 95 % of control | dose: 60.0 mg/kg/injection, schedule: Q01DX Z (ip), vehicle: carboxymethylcellulose (CMC) 97 % of control and 105 % of control | dose: 120.0 mg/kg/injection, schedule: Q01DX Z (ip), vehicle: carboxymethylcellulose (CMC) 94 % of control and 95 % of control | dose: 240.0 mg/kg/injection, schedule: Q01DX Z (ip), vehicle: carboxymethylcellulose (CMC) 100 % of control | dose: 480.0 mg/kg/injection, schedule: Q01DX Z (ip), vehicle: carboxymethylcellulose (CMC) 90 % of control

OCC(O)C(O)C(O)C(O)C(c1ccc(Cl)cc1)c1ccc(Cl)cc1 (stereo unspecified)
inactive: dose: 50.0 mg/kg/injection, schedule: Q01DX001 (ip), vehicle: saline 101 % of control and 98 % of control | [3] 101 % of control and 93 % of control and 88 % of control | [4] 95 % of control and 91 % of control | [5] 95 % of control and 96 % of control

O=C(OCCNC(=O)N1CCOCC1)OCCNC(=O)N1CCOCC1
inactive: [6] 100 % of control | [7] 100 % of control | dose: 400.0 mg/kg/injection, schedule: Q04DX003 (ip), vehicle: saline 106 % of control

COc1cc([N+](=O)[O-])cc(OC)c1OC
inactive: dose: 100.0 mg/kg/injection, schedule: Q01DX001 (ip), vehicle: Klucel (hydroxypropylcellulose) (HPC) 95 % of control | dose: 200.0 mg/kg/injection, schedule: Q01DX001 (ip), vehicle: Klucel (hydroxypropylcellulose) (HPC) 92 % of control | dose: 400.0 mg/kg/injection, schedule: Q01DX001 (ip), vehicle: Klucel (hydroxypropylcellulose) (HPC) 97 % of control

Oc1ccc(C=NCCN=Cc2ccc(O)cc2)cc1
inactive: dose: 100.0 mg/kg/injection, schedule: Q01DX001 (ip), vehicle: other 103 % of control | dose: 200.0 mg/kg/injection, schedule: Q01DX001 (ip), vehicle: other 103 % of control | dose: 400.0 mg/kg/injection, schedule: Q01DX001 (ip), vehicle: other 103 % of control

Nc1cc(S(=O)(=O)F)cc(Cl)c1O
inactive: [8] 105 % of control | [9] 103 % of control

OCCC[P+](c1ccccc1)(c1ccccc1)c1ccccc1
inactive: dose: 25.0 mg/kg/injection, schedule: Q01DX009 (ip), vehicle: Klucel (hydroxypropylcellulose) (HPC) 96 % of control | dose: 50.0 mg/kg/injection, schedule: Q01DX009 (ip), vehicle: Klucel (hydroxypropylcellulose) (HPC) 100 % of control | [10] 102 % of control

COc1cc(O)c(OC)cc1O
inactive: [8] 100 % of control | [10] 105 % of control | [9] 103 % of control | [11] 103 % of control | [12] 97 % of control | [13] 102 % of control

Cc1cc(C)nc(NC(=O)Nc2ccccc2)c1
inactive: [8] 93 % of control | [10] 94 % of control | [11] 92 % of control | [12] 100 % of control | [13] 89 % of control

O=[N+]([O-])c1ccc(SCCCN2CCCCC2)c([N+](=O)[O-])c1
inactive: dose: 50.0 mg/kg/injection, schedule: Q01DX001 (ip), vehicle: carboxymethylcellulose (CMC) 96 % of control

CSc1n[n+](-c2ccccc2)cs1
inactive: [3] 103 % of control | [4] 103 % of control | [5] 100 % of control

O=C(NCC(=O)N1CCCC1C(=O)OCc1ccccc1)OCc1ccccc1 (stereo not drawn) (Cbz-Gly-[ξP]-OBn)
inactive: [10] 106 % of control | [11] 106 % of control | [13] 102 % of control

CCSC1=C(SCC)C(=O)C(SCC)=C(SCC)C1=O
inactive: dose: 3.1 mg/kg/injection, schedule: Q01DX009 (ip), vehicle: saline with Tween-80 110 % of control | dose: 6.25 mg/kg/injection, schedule: Q01DX009 (ip), vehicle: saline with Tween-80 105 % of control | dose: 12.5 mg/kg/injection, schedule: Q01DX009 (ip), vehicle: saline with Tween-80 105 % of control | dose: 25.0 mg/kg/injection, schedule: Q01DX009 (ip), vehicle: saline with Tween-80 91 % of control | dose: 50.0 mg/kg/injection, schedule: Q01DX009 (ip), vehicle: saline with Tween-80 103 % of control

NCC1OC(OC2C(CO)OC(OC3C(O)C(N)CC(N)C3OC3OC(CN)C(O)C(O)C3N)C2O)C(N)C(O)C1O (stereo unspecified)
inactive: dose: 37.5 mg/kg/injection, schedule: Q01DX001 (ip), vehicle: saline 100 % of control | dose: 75.0 mg/kg/injection, schedule: Q01DX001 (ip), vehicle: saline 105 % of control | dose: 150.0 mg/kg/injection, schedule: Q01DX001 (ip), vehicle: saline 111 % of control

CCCCC(=O)N/N=C/C=C/c1ccccc1[N+](=O)[O-]
inactive: [3] 97 % of control | [4] 105 % of control | [5] 105 % of control

ClC1=C(Cl)C(Cl)(Cl)SS1
inactive: dose: 9.5 mg/kg/injection, schedule: Q01DX001 (ip), vehicle: other 100 % of control | dose: 10.0 mg/kg/injection, schedule: Q04DX003 (ip), vehicle: other 100 % of control | dose: 19.0 mg/kg/injection, schedule: Q01DX001 (ip), vehicle: other 103 % of control | dose: 20.0 mg/kg/injection, schedule: Q04DX003 (ip), vehicle: other 92 % of control | dose: 38.0 mg/kg/injection, schedule: Q01DX001 (ip), vehicle: other 91 % of control | dose: 40.0 mg/kg/injection, schedule: Q04DX003 (ip), vehicle: other 89 % of control | dose: 75.0 mg/kg/injection, schedule: Q01DX001 (ip), vehicle: other 93 % of control

Cc1ccc(NC(=O)OC/C=C/c2ccccc2)cc1NC(=O)OC/C=C/c1ccccc1
inactive: [9] 93 % of control

O=C1NC(=O)C([n+]2ccccc2)=C1[O-]
inactive: [1] 110 % of control | [2] 110 % of control | [6] 94 % of control and 100 % of control | [7] 96 % of control

CCCCC(CC)(CCC)CCN (stereo unspecified)
inactive: dose: 5.0 mg/kg/injection, schedule: Q01DX001 (ip), vehicle: carboxymethylcellulose (CMC) 100 % of control | dose: 10.0 mg/kg/injection, schedule: Q01DX001 (ip), vehicle: carboxymethylcellulose (CMC) 110 % of control | dose: 20.0 mg/kg/injection, schedule: Q01DX001 (ip), vehicle: carboxymethylcellulose (CMC) 100 % of control

O=C(N/N=C\c1ccc(Cl)cc1)c1ccccc1
inactive: dose: 100.0 mg/kg/injection, schedule: Q04DX003 (ip), vehicle: saline with Tween-80 99 % of control | dose: 200.0 mg/kg/injection, schedule: Q04DX003 (ip), vehicle: saline with Tween-80 100 % of control

O=C(/C=C\c1cccc([N+](=O)[O-])c1)c1ccc(F)cc1
inactive: dose: 100.0 mg/kg/injection, schedule: Q04DX002 (ip), vehicle: Klucel (hydroxypropylcellulose) (HPC) 100 % of control | dose: 200.0 mg/kg/injection, schedule: Q04DX002 (ip), vehicle: Klucel (hydroxypropylcellulose) (HPC) 94 % of control | dose: 400.0 mg/kg/injection, schedule: Q04DX002 (ip), vehicle: Klucel (hydroxypropylcellulose) (HPC) 98 % of control

COc1ccc(CCN2C(=O)c3cccc4c([N+](=O)[O-])ccc(c34)C2=O)cc1OC
inactive: [8] 100 % of control | [9] 94 % of control | [12] 93 % of control

C=CCP(c1ccccc1)c1ccccc1
inactive: dose: 100.0 mg/kg/injection, schedule: Q04DX002 (ip), vehicle: saline 98 % of control | dose: 200.0 mg/kg/injection, schedule: Q04DX002 (ip), vehicle: saline 91 % of control

CNC(=O)n1cnc(N)n1 (tested in a mixture with another compound)
inactive: [8] 96 % of control | [9] 103 % of control
